Assay results reported in the METLIN SMRT retention time set (Domingo-Almenara et al. 2019).

assay: gradient 5% acetonitrile 3 min, to 50% in 2 min, to 85% in 15 min, held 3 min, 100 µL/min; details: column: Zorbax Extend-C18 2.1 x 50 mm; eluents: water / acetonitrile, 0.1% formic acid
Procedure, shortened: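 Values are retention times taken from adduct peaks that software picked and an analyst inspected. The pure standards were run as mixtures of ~100 molecules on HPLC linked to a quadrupole time-of-flight mass spectrometer, in positive and negative ionization mode. A Zorbax Extend-C18 column (2.1 × 50 mm, 1.8 μm) was used at 100 μL/min with water and acetonitrile, each including 0.1% formic acid.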

Row | RP-LC retention time [s] | SMILES
1 | 1160 | COc1ccccc1N1CCN(S(=O)(=O)c2cc(-c3csc(C)n3)ccc2C)CC1
2 | 893 | Cc1ccc(-n2c(N3CCCC(C(=O)NCc4ccc(C)o4)C3)nc3ccsc3c2=O)cc1 (centres undefined)
3 | 1150 | O=c1c2ccccc2n(Cc2nc(-c3cccc(Br)c3)no2)c(=O)n1CC1CCCO1 (centres undefined)
4 | 1020 | O=C(CC(c1ccccc1)c1ccccc1)N1CC(c2nc(-c3ccccc3)no2)C1
5 | 840 | CN(C)S(=O)(=O)c1ccc(-c2nnc(C(=O)NCc3ccccc3F)o2)cc1
6 | 726 | NC(=O)c1ccc2c(c1)CCCN2S(=O)(=O)c1ccccc1
7 | 694 | CC1(C)CC(=O)c2cn(-c3ccccc3)c(=O)c(C(=O)N3CCOCC3)c2C1
8 | 1090 | O=S(=O)(c1ccc(-c2noc(COc3ccc(Cl)cc3)n2)cc1)N1CCOCC1
9 | 630 | O=C(NCc1cccnc1)C1CCN(Cc2cc3ccccc3n2Cc2ccccc2Cl)CC1
10 | 733 | O=C(c1ccc(Cl)c(Cl)c1)N1CCN(c2ccc(-c3ccco3)nn2)CC1
11 | 940 | CCOc1ccc2nc(C(=O)NCc3ccc(OC(C)C)cc3)cn2n1
12 | 888 | CCn1c(=O)c(C)nc2cc(-c3noc(Cc4ccc(OC)c(OC)c4)n3)ccc21
13 | 900 | O=C(NCCc1ccccc1)N1CCc2nc(-c3ccc(F)cc3)ncc2C1
14 | 952 | CCS(=O)(=O)N1CCC(F)(c2nc(-c3ccccc3)no2)CC1
15 | 851 | O=S(=O)(c1ccc2nncn2c1)N(Cc1ccccc1)c1cccc(F)c1
16 | 1120 | Cc1cccc2c(=O)n(C3CCN(S(=O)(=O)c4ccc(C(C)C)cc4)CC3)cnc12
17 | 818 | COc1ccc(S(=O)(=O)N2CCCC(C(=O)Nc3c(F)cccc3F)C2)cc1OC (centres undefined)

Row | RP-LC retention time [s] | SMILES
18 | 1080 | COc1ccc(-c2nc(-c3ccc4c(c3)oc(=O)n4C(C)C)no2)c(OC)c1
19 | 920 | Cc1ccccc1-c1cn(CC(=O)NCc2ccc(F)c(Cl)c2)nc1N1CCOCC1
20 | 742 | O=C(NC1CCN(c2cc(-c3ccc(Cl)cc3)[nH]n2)C1)c1ccc2[nH]ccc2c1 (centres undefined)
21 | 589 | CCC1CCCCN1C(=O)c1cnc2nc(C)ccc2c1Nc1ccc(S(N)(=O)=O)cc1 (centres undefined)
22 | 1070 | Cc1ccc(-c2csc(NC(=O)CN3C(=O)COc4ccc(Cl)cc43)n2)cc1
23 | 636 | CC(C)Cn1c(=O)c(N2CCN(S(=O)(=O)c3cccc(F)c3)CC2)nc2ccncc21
24 | 871 | CCOc1ccc(CC(=O)N2CCC3(CC2)N=C(c2ccc(C)cc2)NO3)cc1
25 | 729 | COc1ccc(-c2nc(-c3ccc4ncn(C(C)C)c4c3)no2)c(OC)c1
26 | 674 | Cc1ccc(S(=O)(=O)Nc2cccc(-c3cn4cccc(C)c4n3)c2)cc1
27 | 822 | COc1ccc(CCC(=O)Nc2cnn(-c3ncc(N4CCCC4)cn3)c2)cc1
28 | 609 | c1ccc2c(-c3nc(-c4ccc5c(c4)ncn5CCN4CCCCC4)no3)n[nH]c2c1
29 | 641 | CC(=O)Nc1ccc(C(=O)NC2CCN(c3cc(-c4ccc(F)cc4)[nH]n3)C2)cc1 (centres undefined)
30 | 875 | CCN(CC)S(=O)(=O)c1ccc(NC(=O)c2ccc3c(=O)n4c(nc3c2)CCCCC4)cc1
31 | 722 | O=C(CN1C(=O)c2ccccc2C1=O)NCc1nnnn1-c1ccc(Cl)cc1
32 | 957 | COc1ccccc1-c1noc(C2CCCN2C(=O)Nc2cc(C)cc(C)c2)n1 (centres undefined)
33 | 874 | COC(=O)c1ccccc1Nc1c(-c2ccc(N3CCOCC3)cc2)nc2cnccn12

The next lines start with the compound.

Row | SMILES | RP-LC retention time [s]
34 | Cc1cc(C)c(S(=O)(=O)NCCc2cn(CC(C)C)c3ncccc23)cc1C | 1040
35 | Cc1ccc(C(=O)N2CCC(N3C(=O)C(O)C34CCCCC4)CC2)s1 (centres undefined) | 678
36 | CCn1cc(C)c(C(=O)O)c1CC(=O)Nc1cc(C)cc(C)c1 | 907
37 | O=C(CCc1nnn2c1CN(C(=O)COc1ccc(F)cc1)CC2)N1CCCC1 | 665
38 | CCc1cccc(-n2nnc(C(=O)N3CCC4(CC3)OCCO4)c2-c2ccncc2)c1 | 744
39 | CNCc1ccc(-c2cc(Cl)cc(Cl)c2)o1 | 658
40 | COc1cccc(CN2C[C@@H]3C(=O)N(CCCN4CCCC4=O)C(=O)[C@@H]3C2)c1 | 598
41 | Cc1ccc(CNC(=O)N2CC=C(c3cn(C)c4ncccc34)CC2)cc1 | 818
42 | COc1ccc(C(=O)N2CCc3cc(-c4csc(C)n4)ccc32)cc1OC | 862
43 | CN(CC1CCOC1)C(=O)Nc1ccc(F)cc1 (centres undefined) | 671
44 | CCCn1cc(CCNS(=O)(=O)c2ccc(C)c(C)c2)c2cccnc21 | 923
45 | Cc1ccc(NC(=O)N2CCCC2c2cc(C)no2)cc1 (centres undefined) | 782
46 | O=C(NCc1nc2ccccc2n1CC(=O)N1CCCC1)c1ccco1 | 587
47 | Cc1ccccc1S(=O)(=O)N1CCCC(CCC(=O)NCC2CCCCC2)C1 (centres undefined) | 580
48 | CCCN(C)C(=O)c1cc(=O)[nH]c2ccccc12 | 614
49 | COc1ccccc1NC(=O)Nc1c(-c2cccc(C)c2)nc2ccccn12 | 700
50 | CCc1cccc(NC(=O)N2CCC(OC3CCN(S(C)(=O)=O)CC3)CC2)c1 | 803
51 | CC(C)CC(=O)Nc1cc2c(cc1S(=O)(=O)c1ccc(F)cc1)n(C)c(=O)n2C | 847
52 | O=C(C1=CN(c2cccc(Br)c2)c2cc(F)ccc2S1(=O)=O)N1CCCC1 | 863

Row | SMILES | RP-LC retention time [s]
53 | COC(=O)c1cnc(N2CCN(c3cccc(C)c3)C(C)C2)c2ccccc12 (centres undefined) | 1040
54 | Cc1ccc(N2CCCS2(=O)=O)cc1NS(=O)(=O)c1c(C)noc1C | 866
55 | Cc1cccc(-c2nc3cnccn3c2NCCC(=O)NCC(C)C)c1 | 672
56 | CCc1ccc(CNC(=O)C2CCN(c3cncnc3N3CCN(C)CC3)CC2)cc1 | 588
57 | CC(=O)c1ccc(NC(=O)Cn2nc3c(N(C)C4CCCCC4)nccn3c2=O)cc1 | 705
58 | CCOC(=O)C1=C(CN2CCCC(c3ccccc3)C2)NC(=O)NC1c1cccc(OC)c1OC (centres undefined) | 695
59 | COc1ccc(N2C=C(C(=O)N3CCCC3)S(=O)(=O)c3ccc(Cl)cc32)cc1OC | 816
60 | CC1=C(c2ccccc2)S(=O)(=O)N=C1N1CCCN(C(=O)NC2CCCC2)CC1 | 778
61 | Cn1c(=O)c2cc(C(=O)N3CCN(c4ccc(F)cc4)CC3)sc2n(C)c1=O | 796
62 | COc1nn(C)cc1C(=O)N1CCC(C(=O)Nc2ccc(-n3cnnn3)cc2)CC1 | 600
63 | CCOc1cccc(C2c3[nH]c4ccccc4c3CCN2C(=O)c2ccnn2C)c1 (centres undefined) | 1050
64 | CC1CCCC(C)N1C(=O)CSc1nnc(-c2ccc3c(c2)OCCCO3)n1C (centres undefined) | 780
65 | O=C(NC1CCCCC1)[C@@H]1C[C@@H](O)CN1C1CCN(C(=O)c2ccc(Cn3ccnc3)o2)CC1 | 551
66 | CCn1cc(CCNC(=O)Nc2cccc(C)c2C)c2cccnc21 | 720
67 | CCOc1ccccc1NC(=O)Nc1ccc(CC(=O)NCC(F)(F)F)cc1 | 815
68 | Cc1ccc(-c2nocc2CCC(=O)O)cc1 | 748
69 | COc1cccc(C(=O)Nc2c(-c3ccc(F)cc3)nc3ccccn23)c1OC | 667
70 | COC(=O)c1cc(S(=O)(=O)N2CCCC2C(=O)Nc2ccc(C)cc2C)cn1C (centres undefined) | 915
71 | Cc1ccc(-c2cc3c4nnc(CCC(=O)N5CCN(c6ccccn6)CC5)n4ccn3n2)cc1C | 650

Row | SMILES | RP-LC retention time [s]
72 | CN1C(=O)c2cccn2CC1CNC(=O)c1cccn1C (centres undefined) | 636
73 | CN(CC1CCOC1)C(=O)c1cc(F)cc(F)c1 (centres undefined) | 690
74 | Cc1cn(C)c(CC(=O)NCCN2CCCCC2)c1C(=O)O | 578
75 | Cn1cc(-c2ccc3ncc(Cc4ccc5ncccc5c4)n3n2)cn1 | 582
76 | Cc1cc2c(cc1S(=O)(=O)N1CCCC1C(=O)NCC(C)c1ccccc1)OCC(=O)N2 (centres undefined) | 799
77 | COc1ccc(C(=O)N2CCc3cn(C)c4cccc(c34)C2)c(OC)c1 | 875
78 | Cc1ccc(N2CCC(NC(=O)Nc3cccc(C)c3)C2=O)cc1 (centres undefined) | 862
79 | CCN(C(=O)C1CCC(C)CC1)c1nc(-c2ccccc2)cs1 (centres undefined) | 838
80 | COCCNC(=O)C(=O)Nc1ccc(Br)cc1F | 839
81 | O=C(NC1CCN(c2nnc3ccc(Cl)cn23)CC1)c1ccco1 | 606
82 | CCOC(=O)c1cnc2nc(-c3ccccc3Cl)nn2c1C | 945
83 | NC(=O)c1n[nH]c2c1CCCCCC2 | 644
84 | Cc1ccc(CNC(=O)C2(C)CCCN(C(=O)Nc3ccc(Br)c(C)c3)C2)cc1 (centres undefined) | 1110
85 | COc1ccc(OC)c(NC(=O)N2CCc3cn(C)c4cccc(c34)C2)c1 | 943
86 | O=Cc1ccc(O)c2ncccc12 | 658
87 | COCCN1C(=O)[C@H]2CN(Cc3cccc(Br)c3)C[C@H]2C1=O | 656
88 | COc1ncccc1CNC(=O)c1cnn2cccnc12 | 638
89 | COCCn1ccc2nc(C)c(C(=O)N3CCN(c4ccccn4)CC3)cc2c1=O | 554
